pEC50, pIC50: −log10 of the molar value. Like-named read-outs stand apart in the source and are kept apart here.
Legend:
IP = IP (Homo sapiens, UniProt P43119); experiment: HTRF cAMP assay, recombinant human IP receptor stably expressed in CHO-K1 cells; assay type: cell-based; set-up: expressed in transfected cells
Experimental: (§1) The new compounds were tested for functional agonist activity in a standard (Cisbio) cAMP assay using recombinant IP or DP1 receptors stably expressed in CHO-K1 cells. Clonal cell lines were derived following standard protocols, but receptor expression levels were kept to a minimum to preclude receptor reserve effects.
(§2) For development of cAMP accumulation assays, recombinant IP or DP1 receptors were stably expressed in CHO-K1 cells and clonal cell lines derived following standard protocols. Receptor expression levels were minimized to preclude receptor reserve effects. HTRF cAMP assays were performed according to the manufacturer’s instructions (Cisbio, cAMP Dynamic 2 assay kit; no. 62AM4PEJ). IP receptor-expressing cells were harvested, resuspended in assay buffer (PBS containing 1 mM IBMX and 0.2% BSA) at a density of 200 000 cells per mL, and dispensed into 384-well assay plates (PerkinElmer Proxiplate no. 6008280) at 5 μL per well. Test compounds were solubilized and serially diluted in DMSO using 5-fold dilutions to generate a 10-point dose–response curve with a top concentration of 10 μM. The samples were then further diluted in PBS to achieve a 2× stock. Diluted compounds were then transferred to a triplicate set of assay plates (5 μL per well). After a 1 h incubation at room temperature, 5 μL of cAMP-D2 reagent diluted in lysis buffer was added to each well followed by 5 μL of cryptate reagent. Plates were then incubated at room temperature for 1 h prior to reading. Time-resolved fluorescence measurements were collected on PerkinElmer Envision or BMG Pherastar microplate readers.

human DP1 receptor = target: T1, human DP1 receptor (Homo sapiens, UniProt Q13258); experiment: HTRF cAMP assay, recombinant human DP1 receptor in CHO-K1 cells; assay type: cell-based; settings: for pEC50: HTRF (cAMP) human DP1 receptor assay, mean of at least three determinations, read-out: EC50 hDP1; for Emax: CHO-K1, intrinsic activity relative to 1 μM PGD2, read-out: hDP1 % IA
T1 construct: expressed in transfected cells
T1 sequence (Q13258 1-359): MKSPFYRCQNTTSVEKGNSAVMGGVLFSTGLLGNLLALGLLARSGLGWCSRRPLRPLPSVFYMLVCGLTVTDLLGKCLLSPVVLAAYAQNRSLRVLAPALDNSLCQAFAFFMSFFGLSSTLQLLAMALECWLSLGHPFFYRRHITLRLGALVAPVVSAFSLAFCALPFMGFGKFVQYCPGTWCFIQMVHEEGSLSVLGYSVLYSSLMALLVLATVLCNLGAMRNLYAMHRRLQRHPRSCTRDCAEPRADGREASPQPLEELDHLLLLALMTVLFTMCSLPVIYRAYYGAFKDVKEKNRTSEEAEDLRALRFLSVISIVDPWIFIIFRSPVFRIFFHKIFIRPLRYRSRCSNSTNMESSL
Experimental: as §1, §2

[1] = Stability in rat microsome preparations; assay type: in vitro ADME; settings: incubation at 37 °C, rat microsomes; read-out: rat MS, T1/2
Excerpt: (§3) Table 1 Screening Data for Selected Analogues ^a | column: human and rat MS, T1/2 (min) ^g

[2] = Stability in human microsome preparations; assay type: in vitro ADME; settings: incubation at 37 °C, human microsomes; read-out: human MS, T1/2
Excerpt: as §3

rat IP = rat IP (Rattus norvegicus, UniProt P43253); experiment: HTRF cAMP assay, recombinant rat IP receptor; assay type: cell-based; set-up: expressed in transfected cells; settings: for pEC50: HTRF (cAMP) rat IP receptor assay, mean of at least three determinations; for Emax: read-out: rIP % IA
Experimental: as §1, §2

human platelet = experiment: Inhibition of ADP-induced human platelet aggregation; assay type: cell-based; settings: aggregation induced by 2.5 μM ADP, mean of at least two determinations
Experimental: Such aggregated and activated platelets produce vasoactive substances such as thromboxane and serotonin that may cause harmful vasoconstriction and vascular remodeling.[13] […] This secondary assay was carried out as previously described,[14] with aggregation induced by 2.5 μM ADP in the presence or absence of IP receptor agonists.

Rat PK (iv and oral) = assay type: in vivo; settings: for AUC(0-inf) / bioavailability: Sprague-Dawley, plasma; for AUC(0-inf): after oral administration 10 mg/kg (5m 10.5); for bioavailability: po, 10 mg/kg; for Cmax / Tmax: po 10 mg/kg (5m 10.5); for T1/2: terminal half-life after iv 2 mg/kg (5m 2.1); for Clobs: total clearance, iv 2 mg/kg (5m 2.1)
[3] = HTRF (cAMP) human IP receptor assay; mean of at least three determinations

Sequence of IP (P43119 whole entry): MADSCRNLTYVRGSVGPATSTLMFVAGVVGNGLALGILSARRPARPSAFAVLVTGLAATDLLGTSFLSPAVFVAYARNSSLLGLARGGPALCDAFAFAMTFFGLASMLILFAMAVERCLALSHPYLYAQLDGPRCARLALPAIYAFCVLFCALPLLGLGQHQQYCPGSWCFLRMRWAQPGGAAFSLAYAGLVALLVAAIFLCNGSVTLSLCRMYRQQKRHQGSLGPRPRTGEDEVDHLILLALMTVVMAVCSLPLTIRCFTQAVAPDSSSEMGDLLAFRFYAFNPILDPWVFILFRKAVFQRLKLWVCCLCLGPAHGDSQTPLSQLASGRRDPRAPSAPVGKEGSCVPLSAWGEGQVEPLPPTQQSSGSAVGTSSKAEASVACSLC
Sequence of rat IP (P43253 whole entry): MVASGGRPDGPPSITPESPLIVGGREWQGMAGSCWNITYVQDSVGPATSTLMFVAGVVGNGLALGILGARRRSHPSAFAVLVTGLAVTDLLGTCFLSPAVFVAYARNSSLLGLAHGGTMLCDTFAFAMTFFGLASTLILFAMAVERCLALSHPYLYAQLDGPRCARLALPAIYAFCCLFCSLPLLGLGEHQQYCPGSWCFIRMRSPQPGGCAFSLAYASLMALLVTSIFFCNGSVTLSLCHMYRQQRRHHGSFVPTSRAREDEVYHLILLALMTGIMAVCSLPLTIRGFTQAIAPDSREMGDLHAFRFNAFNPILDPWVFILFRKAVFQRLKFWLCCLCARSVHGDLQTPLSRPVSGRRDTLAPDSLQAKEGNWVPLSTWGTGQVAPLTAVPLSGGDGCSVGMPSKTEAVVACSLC

| Compound | Emax (IP; CHO-K1; read-out: hIP % IA) [%] | pEC50 (IP; [3]) | pEC50 (human DP1 receptor) | half-life [1] [h] | half-life [2] [h] | pEC50 (rat IP) | Emax (rat IP) [%] | pIC50 (human platelet) | Emax (human DP1 receptor) [%] | AUC(0-inf) (Rat PK (iv and oral)) [ng·h/mL] | bioavailability (Rat PK (iv and oral)) [%] | Cmax (Rat PK (iv and oral)) [ng/mL] | Tmax (Rat PK (iv and oral)) [h] | T1/2 (Rat PK (iv and oral)) [h] | Clobs (Rat PK (iv and oral)) [L h^–1 kg^–1] | Emax (IP; CHO-K1, read-out: hIP % IA) [%] |
| --- | --- | --- | --- | --- | --- | --- | --- | --- | --- | --- | --- | --- | --- | --- | --- | --- |
| O=C(O)COC[C@H]1CC[C@H](COC(=O)N(c2cccc(F)c2)c2ccc(Cl)c(F)c2)CC1 [5t, 2-(((1r,4r)-4-(((4-Chloro-3-fluorophenyl)(3-fluorophenyl)carbamoyloxy)methyl)cyclohexyl)methoxy)acetic Acid] | 75 | 7.64 | < 5.00 | > 1 | > 1 | 5.57 | 56 | – | – | – | – | – | – | – | – | – |
| O=C(O)COC[C@H]1CC[C@H](COC(=O)N(c2ccccc2)c2ccc(F)c(Cl)c2)CC1 [5n, 2-(((1r,4r)-4-(((3-Chloro-4-fluorophenyl)(phenyl)carbamoyloxy)methyl)cyclohexyl)methoxy)acetic Acid] | 79 | 7.42 | < 5.00 | > 1 | > 1 | 5.88 | 102 | 6.85 | – | – | – | – | – | – | – | – |
| O=C(COC[C@H]1CC[C@H](COC(=O)N(c2ccc(O)cc2)c2ccc(Cl)cc2)CC1)NCCS(=O)(=O)O [M3] | 78 | 5.98 | – | – | – | – | – | – | – | – | – | – | – | – | – | – |
| O=C(O)COC[C@H]1CC[C@@H](COC(=O)N(c2ccccc2)c2cccc(F)c2)CC1 [5h, 2-(((1s,4s)-4-(((3-Fluorophenyl)(phenyl)carbamoyloxy)methyl)cyclohexyl)methoxy)acetic Acid] | 79 | 7.21 | 5.41 | – | – | 6.25 | 88 | 7.03 | 61 | – | – | – | – | – | – | – |
| O=C(O)COC[C@H]1CC[C@H](COC(=O)N(c2ccccc2)c2cccc(Cl)c2)CC1 [5i, 2-(((1r,4r)-4-(((3-Chlorophenyl)(phenyl)carbamoyloxy)methyl)cyclohexyl)methoxy)acetic Acid] | 80 | – | 5.29 | > 1 | > 1 | 6.57 | 88 | – | 30 | – | – | – | – | – | – | – |
| O=C(O)COC[C@H]1CC[C@H](COC(=O)N(c2ccccc2)c2ccc(Cl)c(F)c2)CC1 [5m, 2-(((1r,4r)-4-(((4-Chloro-3-fluorophenyl)(phenyl)carbamoyloxy)methyl)cyclohexyl)methoxy)acetic Acid] | 85 | 8.47 | 5.69 | > 1 | > 1 | 6.40 | 92 | 7.64 | 38 | 2600 | 88 | 3000 | 0.5 | 5 | 0.8 | – |
| COc1cccc(N(C(=O)OC[C@H]2CC[C@H](COCC(=O)O)CC2)c2ccccc2)c1 [5j, 2-(((1r,4r)-4-(((3-Methoxyphenyl)(phenyl)carbamoyloxy)methyl)cyclohexyl)methoxy)acetic Acid] | 92 | 7.92 | 5.76 | 0.883 | > 1 | 6.33 | 94 | 7.64 | 68 | 1900 | 86 | 900 | 0.3 | 3.3 | 5.1 | – |
| O=C(O)COC[C@H]1CC[C@H](COC(=O)N(c2ccc(F)cc2)c2ccc(F)cc2)CC1 [5r, 2-(((1r,4r)-4-((Bis(4-fluorophenyl)carbamoyloxy)methyl)cyclohexyl)methoxy)acetic Acid] | 65 | 7.39 | 6.07 | – | – | < 5.00 | – | – | 45 | – | – | – | – | – | – | – |
| O=C(O)COC[C@H]1CC[C@H](COC(=O)N(c2ccc(O)cc2)c2ccc(Cl)cc2)CC1 [M2] | 93 | 7.60 | – | – | – | – | – | – | – | – | – | – | – | – | – | – |
| CC(C)N(CCCCOCC(=O)NS(C)(=O)=O)c1cnc(-c2ccccc2)c(-c2ccccc2)n1 [compound 1, selexipag, reference compound] | 98 | – | – | > 1 | > 1 | – | 100 | 7.21 | 48 | – | – | – | – | – | – | – |
| COc1ccc(N(C(=O)OC[C@H]2CC[C@H](COCC(=O)O)CC2)c2ccccc2)cc1 [5e, 2-(((1r,4r)-4-(((4-Methoxyphenyl)(phenyl)carbamoyloxy)methyl)cyclohexyl)methoxy)acetic Acid] | 83 | 8.48 | 6.62 | > 1 | > 1 | 6.78 | 91 | 7.66 | 74 | 3400 | 100 | 950 | 0.3 | 0.3 | 3.4 | – |
| O=C(O)COC[C@H]1CC[C@@H](COC(=O)N(c2ccccc2)c2ccc(Cl)cc2)CC1 [5d, 2-(((1s,4s)-4-(((4-Chlorophenyl)(phenyl)carbamoyloxy)methyl)cyclohexyl)methoxy)acetic Acid] | – | – | 6.01 | – | – | 6.25 | 88 | – | 60 | – | – | – | – | – | – | 80 |
| O=C(O)COC[C@H]1CC[C@@H](COC(=O)N(c2ccccc2)c2ccccc2)CC1 [5b, 2-(((1s,4s)-4-((Diphenylcarbamoyloxy)methyl)cyclohexyl)methoxy)acetic Acid] | 81 | 7.27 | 5.77 | – | – | 6.33 | 94 | 7.27 | 68 | – | – | – | – | – | – | – |
| COc1ccc(N(C(=O)OC[C@H]2CC[C@H](COCC(=O)O)CC2)c2cccc(F)c2)cc1 [5p, 2-(((1r,4r)-4-(((3-Fluorophenyl)(4-methoxyphenyl)carbamoyloxy)methyl)cyclohexyl)methoxy)acetic Acid] | 70 | 8.28 | 5.99 | – | – | 5.80 | 60 | 7.37 | 65 | – | – | – | – | – | – | – |
| O=C(O)COC[C@H]1CC[C@H](COC(=O)N(c2ccc(F)cc2)c2cccc(F)c2)CC1 [5s, 2-(((1r,4r)-4-(((4-Fluorophenyl)(3-fluorophenyl)carbamoyloxy)methyl)cyclohexyl)methoxy)acetic Acid] | 76 | 8.11 | 6.09 | > 1 | > 1 | 5.79 | 54 | 7.52 | 57 | – | – | – | – | – | – | – |
| Cc1ccc(N(C(=O)OC[C@H]2CC[C@H](COCC(=O)O)CC2)c2ccccc2)cc1 [5k, 2-(((1r,4r)-4-((Phenyl(p-tolyl)carbamoyloxy)methyl)cyclohexyl)methoxy)acetic Acid] | 81 | 8.41 | 6.49 | – | – | 6.76 | 99 | 7.41 | 53 | – | – | – | – | – | – | – |
| COc1ccc(N(C(=O)OC[C@H]2CC[C@@H](COCC(=O)O)CC2)c2ccccc2)cc1 [5f, 2-(((1s,4s)-4-(((4-Methoxyphenyl)(phenyl)carbamoyloxy)methyl)cyclohexyl)methoxy)acetic Acid] | 16 | 5.79 | – | – | – | < 5.00 | – | – | – | – | – | – | – | – | – | – |
| O=C(O)COC[C@H]1CC[C@H](COC(=O)N(c2ccc(Cl)cc2)c2cccc(F)c2)CC1 [5q, 2-(((1r,4r)-4-(((4-Chlorophenyl)(3-fluorophenyl)carbamoyloxy)methyl)cyclohexyl)methoxy)acetic Acid] | 70 | 7.73 | 5.94 | > 1 | > 1 | 5.50 | 44 | – | 35 | – | – | – | – | – | – | – |
